According to PubChem BioAssay AID256 (DTP/NCI, 2004):
Several values for one entry are separate records, joined by “and”; a condition that tells them apart may be missing. Equal entries are not always repeated. Toxic doses and inconclusive results are not listed. How the source made its calls: active means survival T/C of 150% or more; inactive means T/C below 125% in these data.

Tested on: CD2F1 mice, L1210 leukemia ip, survival T/C
Experiment: NCI In Vivo Anticancer Drug Screen. Data for tumor model L1210 Leukemia (intraperitoneal) in CD2F1 (CDF1) mice
Details: higher = longer survival
Summary of the method: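 In this screen, transplantable tumors were grown in mice given either the compound or its vehicle. Results were expressed as the treated measurement relative to the control measurement.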

[1] = endpoint: mean survival time, dose: 100.0 mg/kg/injection, schedule: Q04DX003 (ip), vehicle: saline with Tween-80
[2] = endpoint: mean survival time, dose: 200.0 mg/kg/injection, schedule: Q04DX003 (ip), vehicle: saline with Tween-80
[3] = endpoint: mean survival time, dose: 400.0 mg/kg/injection, schedule: Q04DX003 (ip), vehicle: saline with Tween-80
[4] = endpoint: mean survival time, dose: 100.0 mg/kg/injection, schedule: Q01DX009 (ip), vehicle: saline with Tween-80
[5] = endpoint: mean survival time, dose: 200.0 mg/kg/injection, schedule: Q01DX009 (ip), vehicle: saline with Tween-80
[6] = endpoint: mean survival time, dose: 400.0 mg/kg/injection, schedule: Q01DX009 (ip), vehicle: saline with Tween-80
[7] = endpoint: mean survival time, dose: 100.0 mg/kg/injection, schedule: Q01DX001 (ip), vehicle: saline
[8] = endpoint: mean survival time, dose: 200.0 mg/kg/injection, schedule: Q01DX001 (ip), vehicle: saline
[9] = endpoint: mean survival time, dose: 400.0 mg/kg/injection, schedule: Q01DX001 (ip), vehicle: saline
[10] = endpoint: mean survival time, dose: 100.0 mg/kg/injection, schedule: Q01DX001 (ip), vehicle: saline with Tween-80
[11] = endpoint: mean survival time, dose: 200.0 mg/kg/injection, schedule: Q01DX001 (ip), vehicle: saline with Tween-80
[12] = endpoint: mean survival time, dose: 400.0 mg/kg/injection, schedule: Q01DX001 (ip), vehicle: saline with Tween-80
[13] = endpoint: mean survival time, dose: 25.0 mg/kg/injection, schedule: Q01DX005 (ip), vehicle: distilled water + Tween-80
[14] = endpoint: mean survival time, dose: 50.0 mg/kg/injection, schedule: Q01DX005 (ip), vehicle: distilled water + Tween-80
[15] = endpoint: mean survival time, dose: 100.0 mg/kg/injection, schedule: Q01DX005 (ip), vehicle: distilled water + Tween-80
[16] = endpoint: mean survival time, dose: 200.0 mg/kg/injection, schedule: Q01DX005 (ip), vehicle: distilled water + Tween-80
[17] = endpoint: mean survival time, dose: 25.0 mg/kg/injection, schedule: Q01DX009 (ip), vehicle: saline with Tween-80
[18] = endpoint: mean survival time, dose: 50.0 mg/kg/injection, schedule: Q01DX009 (ip), vehicle: saline with Tween-80
[19] = endpoint: mean survival time, dose: 100.0 mg/kg/injection, schedule: Q04DX003 (ip), vehicle: saline

Measured: T/C

O=c1[nH]c(SCc2ccccc2)nc(Cc2ccccc2)c1CCO
inactive: [1] 95 % of control | [2] 94 % of control | [3] 90 % of control

Cc1ccc(N=C(N)NC#N)cc1
inactive: [4] 91 % of control | [5] 93 % of control | [6] 91 % of control

CCCCCCCCCCCc1nc(N)n[nH]1
inactive: [1] 98 % of control | [2] 102 % of control | [3] 102 % of control

CN(C(=O)Nc1cccc([N+](=O)[O-])c1)c1ccccc1
inactive: [7] 102 % of control | [8] 98 % of control | [9] 98 % of control

CCn1c(-c2ccc(OC(C)=O)cc2)c(C)c2cc(OC(C)=O)ccc21
inactive: endpoint: median survival time, dose: 25.0 mg/kg/injection, schedule: Q01DX009 (ip), vehicle: Klucel (hydroxypropylcellulose) (HPC) 107 % of control | endpoint: median survival time, dose: 50.0 mg/kg/injection, schedule: Q01DX009 (ip), vehicle: Klucel (hydroxypropylcellulose) (HPC) 102 % of control | endpoint: median survival time, dose: 100.0 mg/kg/injection, schedule: Q01DX009 (ip), vehicle: Klucel (hydroxypropylcellulose) (HPC) 96 % of control | endpoint: median survival time, dose: 200.0 mg/kg/injection, schedule: Q01DX009 (ip), vehicle: Klucel (hydroxypropylcellulose) (HPC) 102 % of control | endpoint: median survival time, dose: 400.0 mg/kg/injection, schedule: Q01DX009 (ip), vehicle: Klucel (hydroxypropylcellulose) (HPC) 90 % of control

O=C1C=CC(=O)C(SCCC(=O)O)=C1
inactive: endpoint: mean survival time, dose: 50.0 mg/kg/injection, schedule: Q04DX003 (ip), vehicle: saline with Tween-80 94 % of control | [1] 96 % of control | [2] 111 % of control

COC1C2CCC1N(C)CC2 (stereo unspecified)
inactive: endpoint: mean survival time, dose: 37.5 mg/kg/injection, schedule: Q04DX002 (ip), vehicle: saline with Tween-80 106 % of control | endpoint: mean survival time, dose: 75.0 mg/kg/injection, schedule: Q04DX002 (ip), vehicle: saline with Tween-80 98 % of control | endpoint: mean survival time, dose: 150.0 mg/kg/injection, schedule: Q04DX002 (ip), vehicle: saline with Tween-80 117 % of control | endpoint: mean survival time, dose: 300.0 mg/kg/injection, schedule: Q04DX002 (ip), vehicle: saline with Tween-80 95 % of control

CCCCOC(=O)c1ccc(OC(=O)Nc2ccc(C)cc2[N+](=O)[O-])cc1
inactive: endpoint: mean survival time, dose: 25.0 mg/kg/injection, schedule: Q01DX009 (ip), vehicle: saline + alcohol 102 % of control | endpoint: mean survival time, dose: 50.0 mg/kg/injection, schedule: Q01DX001 (ip), vehicle: saline with Tween-80 109 % of control | endpoint: mean survival time, dose: 50.0 mg/kg/injection, schedule: Q01DX009 (ip), vehicle: saline + alcohol 108 % of control | [10] 113 % of control | endpoint: mean survival time, dose: 100.0 mg/kg/injection, schedule: Q01DX009 (ip), vehicle: saline + alcohol 103 % of control | [11] 109 % of control | endpoint: mean survival time, dose: 200.0 mg/kg/injection, schedule: Q01DX009 (ip), vehicle: saline + alcohol 101 % of control | [12] 107 % of control

O=C(O)C1CCC(CC2CCCCC2)CC1 (stereo unspecified)
inactive: [1] 93 % of control | [2] 94 % of control | [3] 104 % of control

C(CC1CO1)C1CO1 (stereo unspecified)
inactive: endpoint: mean survival time, dose: 2.5 mg/kg/injection, schedule: Q01DX009 (ip), vehicle: Klucel (hydroxypropylcellulose) (HPC) 98 % of control and 104 % of control | endpoint: mean survival time, dose: 5.0 mg/kg/injection, schedule: Q01DX009 (ip), vehicle: Klucel (hydroxypropylcellulose) (HPC) 98 % of control and 104 % of control | endpoint: mean survival time, dose: 10.0 mg/kg/injection, schedule: Q01DX009 (ip), vehicle: Klucel (hydroxypropylcellulose) (HPC) 92 % of control and 96 % of control | endpoint: mean survival time, dose: 20.0 mg/kg/injection, schedule: Q01DX009 (ip), vehicle: Klucel (hydroxypropylcellulose) (HPC) 98 % of control and 104 % of control | endpoint: mean survival time, dose: 40.0 mg/kg/injection, schedule: Q01DX009 (ip), vehicle: Klucel (hydroxypropylcellulose) (HPC) 95 % of control and 98 % of control | endpoint: mean survival time, dose: 49.5 mg/kg/injection, schedule: Q01DX009 (ip), vehicle: Klucel (hydroxypropylcellulose) (HPC) 122 % of control | endpoint: mean survival time, dose: 80.0 mg/kg/injection, schedule: Q01DX009 (ip), vehicle: Klucel (hydroxypropylcellulose) (HPC) 96 % of control and 98 % of control

CC(=O)CCCOC(C)=O
inactive: [7] 103 % of control | [8] 100 % of control | [9] 100 % of control

N#Cc1cn(C2OC(CO)C3OC32)c2ncnc(NC(=O)c3ccccc3)c12 (stereo unspecified)
inactive: [13] 103 % of control | [14] 104 % of control | [15] 114 % of control | [16] 110 % of control

CC(C)COC(=O)c1ccc(NC(=O)Nc2ccccc2Cl)cc1
inactive: [4] 93 % of control | [1] 93 % of control | [5] 89 % of control | [3] 101 % of control

CC(=O)OCC1OC(n2nc(CBr)cc2C(N)=O)C(OC(C)=O)C(OC(C)=O)C1OC(C)=O (stereo unspecified)
inactive: endpoint: mean survival time, dose: 12.5 mg/kg/injection, schedule: Q01DX005 (ip), vehicle: distilled water + Tween-80 104 % of control | [13] 96 % of control | [14] 98 % of control | [15] 92 % of control | [16] 93 % of control

CC1CC(C)(C)NC(C)(C(C)CC(C)(C)C)O1 (stereo unspecified)
inactive: endpoint: mean survival time, dose: 50.0 mg/kg/injection, schedule: Q04DX002 (ip), vehicle: saline 108 % of control | [10] 93 % of control | endpoint: mean survival time, dose: 100.0 mg/kg/injection, schedule: Q04DX002 (ip), vehicle: saline 104 % of control | [11] 93 % of control | endpoint: mean survival time, dose: 200.0 mg/kg/injection, schedule: Q04DX002 (ip), vehicle: saline 93 % of control

COC(=O)C(C)C(C)(O)C(C)(C)C (stereo unspecified)
inactive: [17] 100 % of control | endpoint: mean survival time, dose: 25.0 mg/kg/injection, schedule: Q04DX003 (ip), vehicle: saline 103 % of control | [18] 101 % of control | endpoint: mean survival time, dose: 50.0 mg/kg/injection, schedule: Q04DX003 (ip), vehicle: saline 103 % of control | [4] 102 % of control | [19] 98 % of control

COc1cc2c(cc1OC)C(N)CCC2 (stereo unspecified)
inactive: endpoint: mean survival time, dose: 12.5 mg/kg/injection, schedule: Q01DX009 (ip), vehicle: water 97 % of control | endpoint: mean survival time, dose: 25.0 mg/kg/injection, schedule: Q01DX009 (ip), vehicle: water 103 % of control | endpoint: mean survival time, dose: 50.0 mg/kg/injection, schedule: Q01DX009 (ip), vehicle: water 98 % of control | endpoint: mean survival time, dose: 100.0 mg/kg/injection, schedule: Q01DX009 (ip), vehicle: water 105 % of control

CCOc1ccc(NC2OC(CO)C(O)C(O)C2O)cc1 (stereo unspecified)
inactive: [7] 100 % of control | [8] 108 % of control

CCCC(C#N)OC(=O)c1ccccc1 (stereo unspecified)
inactive: [17] 96 % of control | [18] 104 % of control | [1] 101 % of control

C/C=C/C=C/C(=O)c1cc(C#N)c(OC)cc1O
inactive: [10] 88 % of control | [11] 88 % of control | [12] 89 % of control

CC(=O)CC(=O)N1CCN(C(=O)CC(C)=O)CC1
inactive: [19] 98 % of control | endpoint: mean survival time, dose: 200.0 mg/kg/injection, schedule: Q04DX003 (ip), vehicle: saline 96 % of control | endpoint: mean survival time, dose: 400.0 mg/kg/injection, schedule: Q04DX003 (ip), vehicle: saline 98 % of control

c1cc[n+](Cc2ccc3ccccc3c2)c(C2OCCO2)c1
inactive: endpoint: mean survival time, dose: 5.0 mg/kg/injection, schedule: Q01DX009 (ip), vehicle: saline 102 % of control | endpoint: mean survival time, dose: 10.0 mg/kg/injection, schedule: Q01DX009 (ip), vehicle: saline 102 % of control | endpoint: mean survival time, dose: 20.0 mg/kg/injection, schedule: Q01DX009 (ip), vehicle: saline 105 % of control

COC(=O)CCCCC(=O)OC
inactive: [1] 96 % of control | [2] 102 % of control | [3] 102 % of control

O=C(O)c1c(Cl)c(-c2c(Cl)c(C(=O)O)c(Cl)c([N+](=O)[O-])c2Cl)c(Cl)c([N+](=O)[O-])c1Cl
inactive: [10] 93 % of control | [11] 94 % of control | [12] 89 % of control

CC(C)(O)C#Cc1ccccc1
inactive: [4] 98 % of control | [5] 98 % of control | [6] 96 % of control
